ChEMBL document CHEMBL3044679, “Synthesis and biological evaluation of some stilbene derivatives” (Med Chem Res, 2011)
≈ marks a conversion by molar mass, not a printed value.

Legend:
Type in all cases: functional, cell-based
MOLT-4 = assay: Cytostatic activity against Homo sapiens (human) Molt4/C8 cells after 72 hr by coulter counter analysis; settings: MOLT-4, 72 h
CCRF-CEM = assay: Cytostatic activity against Homo sapiens (human) CEM cells after 72 hr by coulter counter analysis
L1210 = assay: Cytostatic activity against Mus musculus (mouse) L1210 cells after 48 hr by coulter counter analysis; settings: L1210, 48 h

SMILES | IC50 (MOLT-4) [µg/mL] | IC50 (CCRF-CEM) [µg/mL] | IC50 (L1210) [µg/mL]
O=C(O)/C(=C/c1ccccc1Cl)c1ccccc1 | 37 (≈ 143 µM) | 93 (≈ 359 µM) | 76 (≈ 294 µM)
O=C(O)/C(=C/c1ccccc1F)c1ccccc1 | 89 (≈ 367 µM) | > 200 | > 200
CNC(=O)/C(=C/c1ccccc1Cl)c1ccccc1 | 77 (≈ 283 µM) | 60 (≈ 221 µM) | 65 (≈ 239 µM)
CNC(=O)/C(=C/c1ccc(OC)cc1)c1ccccc1 | 166 (≈ 621 µM) | 128 (≈ 479 µM) | 68 (≈ 254 µM)
CCN(CC)C(=O)/C(=C/c1ccccc1Cl)c1ccccc1 | 14 (≈ 44.6 µM) | 18 (≈ 57.4 µM) | 24 (≈ 76.5 µM)
CCNC(=O)/C(=C/c1ccccc1)c1ccccc1 | 112 (≈ 446 µM) | 26 (≈ 103 µM) | 132 (≈ 525 µM)
CCNC(=O)/C(=C/c1ccc(OC)cc1)c1ccccc1 | 150 (≈ 533 µM) | 116 (≈ 412 µM) | 148 (≈ 526 µM)
CNC(=O)/C(=C/c1ccccc1F)c1ccccc1 | 72 (≈ 282 µM) | 89 (≈ 349 µM) | 85 (≈ 333 µM)
CNC(=O)/C(=C/c1ccccc1O)c1ccccc1 | > 200 | > 200 | > 200
COC(=O)/C(=C/c1ccccc1Cl)c1ccccc1 | 16 (≈ 58.7 µM) | 19 (≈ 69.7 µM) | 25 (≈ 91.7 µM)
COC(=O)/C(=C/c1ccc(OC)cc1)c1ccccc1 | 71 (≈ 265 µM) | 71 (≈ 265 µM) | 66 (≈ 246 µM)
Fc1ccc(/N=C/c2ccccc2Cl)cc1Cl | 3.9 (≈ 14.5 µM) | 10 (≈ 37.3 µM) | 6.4 (≈ 23.9 µM)
Fc1ccc(/N=C/c2ccccc2Cl)cc1 | 0.77 (≈ 3.3 µM) | 2.1 (≈ 8.99 µM) | 6 (≈ 25.7 µM)
Clc1ccccc1/C=N/c1ccc(Br)cc1 | 1.5 (≈ 5.09 µM) | 4.5 (≈ 15.3 µM) | 2.1 (≈ 7.13 µM)
Fc1ccc(/N=C/c2cccs2)cc1Cl | 16 (≈ 66.7 µM) | 25 (≈ 104 µM) | 3.2 (≈ 13.3 µM)
COc1ccc(/C=C/c2ccc(F)cc2)cc1 | > 200 | 156 (≈ 683 µM) | 26 (≈ 114 µM)
Fc1ccc(/C=C/c2ccccc2F)cc1 | 61 (≈ 282 µM) | 83 (≈ 384 µM) | 62 (≈ 287 µM)
Cc1ccc(/C=C/c2ccccc2F)cc1 | 30 (≈ 141 µM) | 78 (≈ 367 µM) | 72 (≈ 339 µM)
Fc1ccc(/C=C/c2ccccc2)cc1 | > 200 | > 200 | > 200
COc1ccc(/C=C/c2ccc(C)cc2)cc1 | > 200 | > 200 | > 200
O=C(O)/C(=C/c1ccccc1O)c1ccccc1 | > 200 | > 200 | > 200
Cc1ccc(/C=C/c2ccc(N(C)C)cc2)cc1 | > 200 | > 200 | 143 (≈ 602 µM)
N[C@@H](Cc1ccc(N(CCCl)CCCl)cc1)C(=O)O [MELPHALAN] | 3.2 (≈ 10.5 µM) | 2.5 (≈ 8.19 µM) | 2.1 (≈ 6.88 µM)
